According to paper PMC10257291, “Biological activities of extracts and compounds from Thai Kae-Lae (Maclura cochinchinensis (Lour.) Corner)” (BMC Complementary Medicine and Therapies, 2023):

Legend:
WT1 protein = tested on: WT1 protein; design: method as in PMID 29274817; details: compounds from Mah-Lueang; cited from earlier work

Protocol for red blood cells: The whole blood samples were obtained from normal volunteers. Red blood cells were separated by centrifugation and washed 2 times with 0.9% NaCl. Then, 2% RBC suspension was incubated with crude fractional extracts and compounds at 37 °C for 30 min. Triton-X 100 (2%) and NaCl (0.9%) were positive and negative controls, respectively. Then, the supernatant was collected, and haemoglobin concentration was measured by spectrophotometry at 540 nm. The haemolysis induction was calculated using the following equation:5 %Haemolysisinduction=Absorbance of sample/Absorbance of positive contr×100

Molecule	Haemolysis (%) (red blood cells)	decrease of WT1 protein in KG-1a cells (WT1 protein) [%]
Triton X100 [0.05% Triton X100]	100	
CC(C)=C1C[C@H]2[C@@H](CC[C@]2(C)O)[C@](C)(O)CC1=O [zedoarondiol]		95.52
CC(C)=C1C[C@@H]2O[C@@]2(C)CC/C=C(\C)CC1=O [Germacrone-4,5-epoxide]		92.22
